Data taken from patent US11529343B2, “Compositions and methods for identifying and treating dystonia disorders” (DUKE UNIVERSITY, priority 2015, dated 2022).
Entries after “also recorded” stand apart in the source; their conditions may differ. Where a name gives a salt, the structure may show the parent alone.

Tests used:
[1] = test system: delta-E Torsin1a localization; experiment: Delta-E Torsin1a mislocalization assay (% cells with EGFP puncta, high-content imaging); type: cell-based, human; settings: for % pathology CC-v2 (dose response Curve Class): curve class per Inglese et al. 2006; for effect on delta-E Torsin1a localization (cells with puncta), in words: dose response
Description: To limit variation in expression levels associated with random integration or transient expression, single copies of either WT or delta-E human TOR1A cDNAs with N-terminal EGFP fusions were inserted at the FRT site in Flp-In™ T-Rex™ 293 cells (Thermo Fisher Scientific #R780-07) via flippase recombinase-mediated cassette exchange according to the manufacturer's recommended protocols.
The cells were maintained at 37° C./5% CO2. All experiments were performed on cells with fewer than 5 passages.
Torsin1a expression was also controlled by tetracycline induction to avoid selective pressure modifying the cellular phenotypes. […] The mutant phenotype was measured as the percentage of cells with one or more EGFP puncta using automated high-content imaging analysis (see infra).
The image analysis algorithm was developed using the Cellomics ArrayScan V CompartmentAnalysisV2 protocol. Hoechst's nuclear staining (Ch1: excitation 350 nm; emission 461 nm) was used for focusing and for cell identification by nuclear size, shape, and intensity. […] Detected cells were gated according to nuclear area, length-to-width ratio, and perimeter-to-area ratio. For the purpose of analysis, cell bodies were defined by a radius of 10 μm from the outer edge of the defined nucleus. Overlapping cells were automatically segmented according to the Cellomics ArrayScanV CompartmentAnalysisV2 object segmentation feature. EGFP fluorescence (Ch2: excitation 488 nm; emission 509 nm) was used for puncta detection. […] Torsin a puncta were identified using the spot detection feature of the Compartmental AnalysisV2 protocol. The percentage of cells containing one or more puncta was used as the primary metric in this assay.
(§1) In order to test this model directly, the delta-E Torsin1a cell line was treated with compounds targeting the eIF2-alpha signaling pathway (FIG. 2). […] The following day, serial drug dilutions were prepared at 2× final concentration in assay media containing 10 μg/mL tetracycline and 30 μL of the drug/tetracycline mixture was added to the appropriate wells, while control wells received 30 μL of assay media alone or assay media+10 μg/mL tetracycline (final tetracycline concentration for all wells except negative controls: 5 μg/mL). Cells were then incubated at 37° C./5% CO^2 for 48 hours and fixed, permeabilized, Hoechst stained, and imaged as described above. The range of the Torsin1a localization effect was normalized to the percentage of cells with puncta in vehicle-treated delta-E cell line as the maximum and that in WT cell line as the minimum (FIG. 2, panels c-h). Cell count and EGFP-Torsin1a expression were normalized to their respective values in the vehicle-treated delta-E cell line as the maximum. All dose response data are the average of 4 independent experiments per dose. Untreated control data used for normalization are the average of 24 independent experiments.

[2] = test system: Flp-In T-REx 293 cells inducibly expressing delta-E Torsin1a; experiment: Cytotoxicity (cell count, cellular morphology) in the Torsin1a assay cell line; type: cell-based, human; settings: for Cytotox CC-v2 (dose response Curve Class): curve class per Inglese et al. 2006
Description: as §1
Efficacy is calculated as the magnitude of the pathology correction relative to the mutant Torsin1a pathology. For example an efficacy=−100% would be equivalent to the WT TorsinA phenotype, and 0% would be equivalent to the Mutant TorsinA phenotype. CCv2 refers to the dose response Curve Class annotation, and AC refers to Active Concentration.

[3] = test system: luciferase secretion; experiment: C.Luc. Secretion Assay; type: cell-based; settings: for effect on secretory deficits, in words: orthogonal assays
Description: We tested each shRNA for its ability to rescue a previously described defect in luciferase secretion. Chen, P. et al. (2010) Hum. Mol. Genet. 19, 3502-15; Cao, S. et al. (2010) Dis. Model Mech. 3, 386-96; Barrows, N. J., et al., (2010) J. Biomol. Screen. 15, 735-47.) DYT1 patient data were obtained from 4 independent patient-derived lines and WT data (black bar) from 3 normal healthy control lines. Each line was tested in 5 independent experiments that included 4 technical replicates each (with the exception of SCD data from 3 independent experiments).
(Cao, S. et al. (2010) Dis. Model. Mech. 3, 386-96.) Subsequent testing of additional HIV protease inhibitors supported the activity of this class of compounds and generated favorable structure-activity relationship (SAR) data from which to design improved compounds (Tables 5 and 6). The results with a subset of compounds were also observed in a Luciferase secretion assay (Tables 5 and 6).

[4] = test system: homozygous DYT1 knock-in mice; experiment: Perinatal survival of DYT1 knock-in mice after in utero exposure; type: in vivo
Description: Pairs of heterozygous delta-E Torsin1a knock-in breeders (courtesy of Dr. W. Dauer, University of Michigan) were randomly assigned to vehicle or salubrinal treatment groups. Starting 10 days after breeding cages were established, each female mouse was given a daily subcutaneous injection of vehicle or salubrinal at approximately 6 p.m. Cages were checked for new pups three times per day: morning (˜8 a.m.), early afternoon (˜2 p.m.), and during injections (˜6 p.m.). In order to minimize stress and the possibility of litter abandonment, mice with newborn pups were not given injections. Newborn pups were identified by marking limbs with a permanent laboratory marker, and tail samples were taken for genotyping at P0. At approximately P0.5, cages were checked again, and the status of each pup was recorded. If pups were first observed at the 8 am check, the 2 pm check was considered P0.5. If pups were first observed at the 2 pm or 6 pm checks, an additional check was performed at approximately midnight, and considered P0.5. Mortality was also tracked the following day, after which time identifying marks were predominately washed off or obscured by fur. Approximately 8 days after birth all remaining pups were sacrificed, and 10 days after birth daily injections resumed for the subsequent litter. All genotyping and, whenever possible, all pup identification and mortality checks were performed blinded to treatment group.
Salubrinal (R&D Systems #2347) stocks were prepared at 26 mM (10× final concentration) in DMSO and stored in single-use aliquots at −80° C. Each day immediately before injections, a single salubrinal aliquot was thawed to room temperature and diluted 1:10 in injection vehicle (final vehicle composition: 1×PBS/10% DMSO/0.1% BSA). Empty injection vehicle was stored at room temperature in single-use aliquots. Mice were given a single subcutaneous injection of 3.3 mg/kg salubrinal (approximately 80 μL for a 30 g mouse) or an equivalent volume of empty injection vehicle. […]

[5] = delta-E Torsin1a assay cell line

## Cc1cccc(C)c1OCC(=O)NC(CCC(Cc1ccccc1)NC(=O)C(C(C)C)N1CCCNC1=O)Cc1ccccc1 (stereo not shown) [Des-hydroxy Lopinavir]
[1]
  % pathology CC-v2 (dose response Curve Class): −3
[2]
  Cytotox Efficacy: −77.66%
  Cytotox Max Resp: −66.67%
  Cytotox CC-v2 (dose response Curve Class): −2.2

## CC(C)(C)NC(=O)[C@@H]1C[C@@H]2CCCC[C@@H]2CN1C[C@@H](O)[C@H](Cc1ccccc1)NC(=O)[C@H](CC(N)=O)NC(=O)c1ccc2ccccc2n1 [Saquinavir]
[3]
  effect on secretory deficits, in words: corrected secretory deficits
[1]; delta-E cell line
  effect on delta-E Torsin1a localization (cells with puncta), in words: corrected TorsinA localization in a dose-dependent fashion

## CC(C)CN(C[C@@H](O)[C@H](Cc1ccccc1)NC(=O)O[C@H]1CCOC1)S(=O)(=O)c1ccc(N)cc1 [Amprenavir]
[1]; [5]
  ΔE TorsinA Mislocalization Assay Localization EC50: No Activity
[2]
  Cytotox CC-v2 (dose response Curve Class): 4

## CC(C)c1nc(CN(C)C(=O)N[C@H](C(=O)N[C@@H](Cc2ccccc2)C[C@H](O)[C@H](Cc2ccccc2)NC(=O)OCc2cncs2)C(C)C)cs1 [Ritonavir]
[3]
  effect on secretory deficits, in words: corrected secretory deficits
[1]; delta-E cell line
  effect on delta-E Torsin1a localization (cells with puncta), in words: corrected TorsinA localization in a dose-dependent fashion; also recorded: restored
[2]
  Cytotox CC-v2 (dose response Curve Class): 4

## CC(C)(C)NC(=O)[C@@H]1CN(Cc2cccnc2)CCN1C[C@@H](O)C[C@@H](Cc1ccccc1)C(=O)N[C@H]1c2ccccc2C[C@H]1O [Indinavir sulfate]
[2]
  Cytotox Efficacy: −80.64%
  Cytotox Max Resp: −67.80%
  Cytotox CC-v2 (dose response Curve Class): −3

## N=C(N)N/N=C/c1c(Cl)cccc1Cl [guanabenz]
[1]; delta-E cell line
  effect on delta-E Torsin1a localization (cells with puncta), in words: no effect

## Cc1c(O)cccc1C(=O)N[C@@H](CSc1ccccc1)[C@H](O)CN1C[C@H]2CCCC[C@H]2C[C@H]1C(=O)NC(C)(C)C [Nelfinavir]
[1]; Homo sapiens, delta-E Torsin1a assay cell line, read-out: ΔE TorsinA Mislocalization Assay Localization Max Efficacy
  Emax: 80%
[1]; delta-E cell line
  effect on delta-E Torsin1a localization (cells with puncta), in words: corrected TorsinA localization in a dose-dependent fashion

## CCN(CC)CCC(=O)N1N=C(c2c(-c3ccccc3)c3cc(Br)ccc3[nH]c2=O)CC1c1ccc(Br)cc1 (stereo not shown) [CCT020312]
[1]; delta-E cell line
  effect on delta-E Torsin1a localization (cells with puncta), in words: dose-dependent reduction in the number of cells with Torsin1a inclusions

## C[C@H](NC(=O)Cc1cc(F)cc(F)c1)C(=O)N[C@H](C(=O)OC(C)(C)C)c1ccccc1 [DAPT]
[1]; delta-E cell line
  effect on delta-E Torsin1a localization (cells with puncta), in words: no effect

## COC(=O)N[C@H](C(=O)N[C@@H](Cc1ccccc1)[C@@H](O)CN(Cc1ccc(-c2ccccn2)cc1)NC(=O)[C@@H](NC(=O)OC)C(C)(C)C)C(C)(C)C [Atazanavir]
[1]; [5]
  ΔE TorsinA Mislocalization Assay Localization EC50: No Activity
[2]
  Cytotox CC-v2 (dose response Curve Class): 4

## O=C(/C=C/c1ccccc1)NC(NC(=S)Nc1cccc2cccnc12)C(Cl)(Cl)Cl (stereo not shown) [Salubrinal]
[4]; 3.3 mg/kg subcutaneous daily to pregnant dams, about embryonic day 10 through delivery, versus vehicle
  perinatal survival / mortality of delta-E/delta-E pups: dramatically reduced the mortality; also recorded: improves perinatal survival
[4]; 3.3 mg/kg subcutaneous daily to pregnant dams, versus vehicle
  mortality of wild-type and heterozygous pups: no mortality differences
[4]; no postnatal treatment, no vehicle-treated homozygous pup survived the first postnatal day
  homozygous delta-E Torsin1a pups surviving through the second postnatal day: two
[1]; delta-E cell line
  steady-state EGFP-Torsin1a levels, in words: without modifying steady-state EGFP-Torsin1a levels
  effect on delta-E Torsin1a localization (cells with puncta), in words: robust dose-dependent normalization

## Cc1c(O)cccc1C(=O)N[C@@H](CSc1ccccc1)[C@H](O)CN1C[C@H]2CCCC[C@H]2C[C@H]1C(=O)NC(C)(C)C [Viracept]
[2]
  Cytotox Efficacy: −106.32%
  Cytotox Max Resp: −97.72%
  Cytotox CC-v2 (dose response Curve Class): −1.1

## CC(C)(C)NC(=O)[C@@H]1CN(Cc2cccnc2)CCN1C[C@@H](O)C[C@@H](Cc1ccccc1)C(=O)N[C@H]1c2ccccc2C[C@H]1O [Indinavir]
[1]; delta-E cell line
  effect on delta-E Torsin1a localization (cells with puncta), in words: corrected TorsinA localization in a dose-dependent fashion

## CCCC(CCC)C(=O)O [valproic acid]
[1]; delta-E cell line
  effect on delta-E Torsin1a localization (cells with puncta), in words: no effect

## CC(C)CN(C[C@@H](O)[C@H](Cc1ccccc1)NC(=O)O[C@H]1CO[C@H]2OCC[C@H]21)S(=O)(=O)c1ccc(N)cc1 [Darunavir]
[3]
  C.Luc. Secretion Assay Secretion EC50: No Activity
[1]; [5]
  ΔE TorsinA Mislocalization Assay Localization EC50: No Activity

## CS(=O)(=O)O.Cc1c(O)cccc1C(=O)N[C@@H](CSc1ccccc1)[C@H](O)CN1C[C@H]2CCCC[C@H]2C[C@H]1C(=O)NC(C)(C)C.O [Nelfinavir mesylae hydrate]
[1]
  % pathology CC-v2 (dose response Curve Class): −1.1
[2]
  Cytotox Efficacy: −98.05%
  Cytotox Max Resp: −95.64%
  Cytotox CC-v2 (dose response Curve Class): −1.1
